Laboratory results from PubChem BioAssay (NCI).
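Five compound concentrations were applied to cells in 96-well plates for 48 hours; endpoints were derived by simple linear interpolation of the resulting dose-response curve. At the GI50, growth is halved. TGI: total growth inhibition.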

Tests used:
Assay in all cases: DTP human tumour cell line panel, 48 h
M14 melanoma = system: M14 melanoma
SK-MEL-5 melanoma = system: SK-MEL-5 melanoma
SF-539 CNS = system: SF-539 CNS
EKVX NSCLC = system: EKVX NSCLC
SNB-75 CNS = system: SNB-75 CNS
OVCAR-8 ovarian = system: OVCAR-8 ovarian
SK-MEL-28 melanoma = system: SK-MEL-28 melanoma
SNB-19 CNS = system: SNB-19 CNS
SF-268 CNS = system: SF-268 CNS
ACHN renal = system: ACHN renal
SR leukemia = system: SR leukemia
TK-10 renal = system: TK-10 renal
HL-60(TB) leukemia = system: HL-60(TB) leukemia

Compound	TGI (M14 melanoma) [µM]	TGI (SK-MEL-5 melanoma) [µM]	TGI (SF-539 CNS) [µM]	TGI (EKVX NSCLC) [µM]	TGI (SNB-75 CNS) [µM]	TGI (OVCAR-8 ovarian) [µM]	TGI (SK-MEL-28 melanoma) [µM]	TGI (SNB-19 CNS) [µM]	TGI (SF-268 CNS) [µM]	TGI (ACHN renal) [µM]	TGI (SR leukemia) [µM]	TGI (TK-10 renal) [µM]	TGI (HL-60(TB) leukemia) [µM]	GI50 (M14 melanoma) [µM]	GI50 (EKVX NSCLC) [µM]	GI50 (OVCAR-8 ovarian) [µM]	GI50 (HL-60(TB) leukemia) [µM]	GI50 (SK-MEL-28 melanoma) [µM]	GI50 (SF-268 CNS) [µM]	GI50 (SR leukemia) [µM]
COc1cc(CC2CCc3nc(N)nc(N)c3C2)cc(OC)c1OC (stereo not drawn)	28.7	16.6	> 60.4	> 100	> 48.8	> 100	> 100	> 100	13.4	> 45.6	> 100	> 100	–	–	–	–	–	–	–	–
CCSC(=Nc1ccccc1)SC	> 100	> 100	> 100	> 100	> 100	> 100	> 100	> 100	> 100	> 100	–	> 100	> 100	–	–	–	–	–	–	–
CC(N)Cc1cccc(C(F)(F)F)c1 (stereo not drawn)	> 100	> 100	> 100	> 100	> 100	> 100	> 100	> 100	> 100	> 100	> 100	> 100	> 100	–	–	–	–	–	–	–
N#CN=Nc1cc(Cl)c(N=NC#N)cc1Cl	> 100	> 100	> 100	> 100	> 100	> 100	> 100	> 100	> 100	> 100	> 100	> 100	> 100	–	–	–	–	–	–	–
C#CCCCC(=C)C[C@H](OCc1ccccc1)[C@H]1OC(=O)[C@@H]1C	> 100	–	68.5	> 100	> 100	> 100	> 100	> 100	> 100	> 100	> 100	> 100	> 100	–	–	–	–	–	–	–
NC(=O)/N=C(\N)NC(=O)c1ccccc1	> 100	> 100	–	> 100	–	> 100	> 100	> 100	–	> 100	> 100	> 100	> 100	–	–	–	–	–	–	–
CN(C)CCOc1cc2c(c3ccccc13)-c1ccccc1C2=O	–	2.96	3.27	18.5	4.64	3.23	3.27	8.39	3.24	–	–	–	2.7	–	–	–	–	–	–	–
COC(=O)c1cccc(NC(=O)Nc2ccc3oc(=O)c4ccccc4c3c2)c1	> 100	–	–	> 100	–	> 100	> 100	–	> 100	–	> 100	–	> 100	> 100	> 100	> 100	46.5	> 100	3.5	37
Cc1nc(Nc2nnc(-c3cc([N+](=O)[O-])cc([N+](=O)[O-])c3C)o2)sc1C(=O)CC(=O)Cc1nc2ccc(Cl)cc2[nH]c1=O	> 100	> 100	> 100	> 100	> 100	> 100	> 100	> 100	> 100	> 100	> 100	> 100	> 100	–	–	–	–	–	–	–
CO/C(=N/N1CC1C(F)(F)F)c1ccncc1 (stereo not drawn)	> 100	> 100	–	–	> 100	> 100	> 100	> 100	–	–	> 100	–	> 100	–	–	–	–	–	–	–
O=C(CCl)N1CCCCC1C1(c2cc3ccccc3[nH]2)OCCO1 (stereo not drawn)	13.6	22.6	4.51	5.74	7.3	17.6	35.6	31.5	15.4	13.9	–	10.1	> 100	–	–	–	–	–	–	–
